# From publication PMC12216625, “Identification of nanomolar adenosine A2A receptor ligands using reinforcement learning and structure-based drug design” (Nature Communications, 2025)
# Columns and labels:
# [1] = target: T1, A2A receptor (human, wild-type) (Homo sapiens, UniProt P29274); test: [3H]-ZM241385 radioligand competition, filtration; assay type: binding; conditions: read-out: A2A / pKi (± SD) (converted)
# T1 construct: gene ADORA2A; wild-type human A2A; BacMam-transfected cells (CHO-K1 for the cAMP assay)
# Excerpt: [3H]-ZM241385 radioligand competition, filtration on A2A receptor (human, wild-type)
# [2] = target: T1, A2A receptor (human, wild-type); test: cAMP accumulation HTRF, agonist mode (compound alone); assay type: cell-based; conditions: read-out: A2A / pEC50 (± SD) (converted)
# Excerpt: cAMP accumulation HTRF, agonist mode (compound alone) on A2A receptor (human, wild-type)
# [3] = target: T1, A2A receptor (human, wild-type); test: cAMP accumulation HTRF, antagonist mode; assay type: cell-based; conditions: read-out: A2A / pIC50 (± SD) (converted)
# Excerpt: cAMP accumulation HTRF, antagonist mode on A2A receptor (human, wild-type)
# T1 sequence (P29274 whole entry): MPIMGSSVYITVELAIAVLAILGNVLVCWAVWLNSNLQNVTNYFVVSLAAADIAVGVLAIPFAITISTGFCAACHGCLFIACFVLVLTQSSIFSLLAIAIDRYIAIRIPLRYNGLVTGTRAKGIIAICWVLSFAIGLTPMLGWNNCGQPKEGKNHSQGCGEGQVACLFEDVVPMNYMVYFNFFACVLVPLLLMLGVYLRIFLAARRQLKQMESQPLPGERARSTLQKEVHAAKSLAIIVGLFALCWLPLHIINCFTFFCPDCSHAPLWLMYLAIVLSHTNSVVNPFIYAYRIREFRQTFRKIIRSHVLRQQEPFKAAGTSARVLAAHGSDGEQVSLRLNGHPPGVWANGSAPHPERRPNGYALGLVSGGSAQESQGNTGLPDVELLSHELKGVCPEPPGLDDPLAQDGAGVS
Structure (SMILES),Ki [1],EC50 [2],IC50 [3]
"Cc1ccc(-c2nc(N)nn2-c2ccccc2)cc1 [compound 1, Compound 1]",15800 nM,,
"Nc1cc(NCc2ccccc2F)nc(-c2ccccn2)n1 [compound 3, Compound 3]",1260 nM,,
"Nc1nc(-c2ccc(O)cc2)c2cc(F)ccc2n1 [compound 5, Compound 5]",2000 nM,50.1 nM,
"Nc1nc2cc(-c3ccoc3)cc(-c3ccco3)n2n1 [compound 6, Compound 6]",1260 nM,,
"Nc1nc(-c2cccc(-n3ccnc3)n2)nc(-c2ccco2)n1 [compound 7, Compound 7]",50.1 nM,20 nM,25.1 nM
"Nc1nc(-c2ccco2)nc2c1ccn2-c1ccncc1 [compound 9, Compound 9]",31.6 nM,316 nM,20 nM
